In publication PMC10175484, “Identification of three elevenin receptors and roles of elevenin disulfide bond and residues in receptor activation in Aplysia californica” (Scientific Reports, 2023):
Like-named read-outs stand apart in the source and are kept apart here. Where a SMILES comes first, the peptide text is derived from it. Bridges are numbered along the chain shown (N, C = ends).

Experiments:
[1] = system: apElevR2; assay: IP1 accumulation assay, apElevR2 in CHO-K1 cells; assay type: cell-based, Aplysia californica; details: for apElevR2 Log[EC50] (M): logarithm of molar EC50, CHO-K1 transiently expressing apElevR2 (pcDNA3.1(+)), no Gα16 co-transfection, peptide 10^-12 to 10^-4 M, 1 h incubation, mean ± SEM, n = 3, SEM; for apElevR2 Log[EC50] (M) / EC50: IP1 accumulation, NA = no activation
Source text: (§1) To determine whether the Aplysia elevenin can activate the putative elevenin receptors, we cloned apElevRs to pcDNA3.1 (+) plasmid and transfected the three apElevRs in CHO-K1 cells. We used an IP1 accumulation assay to measure the concentration of IP1, which is a by-product in the Gαq signaling pathway, to provide evidence for the activation of receptors by elevenin. […] Initially, we used the elevenin peptide at two concentrations of 10^–11 M and 10^–4 M to screen apElevR1, apElevR2, and apElevR3. […] Further, we used different concentration gradients of elevenin, ranging from 10^–12 to 10^–4 M, to generate the dose–response curves (Fig. 8B–E).
(§2) Gαq-coupled GPCRs stimulate PLC-β activity, resulting in increased cellular D-Myo-Inositol 1-Phosphate (IP1). When the G protein-coupled receptor (GPCR) expressed in CHO-K1 cells (Procell, CL-0062) is activated, it is generated by the Gαq pathway through the appropriate ligand, and IP3 is formed which is degraded to IP1. Therefore, IP1 can be used as an alternative to IP3. First, the putative receptor cloned into the mammalian expression vector pcDNA3.1( +) of Aplysia was transiently expressed in CHO-K1 cells. CHO-K1 cells were cultured in F-12 K medium (Gibco, 21,127–022) containing 10% fetal bovine serum (Genial, G11-70,500) at 37 °C and 5% CO2. When the cell density in the 6-well plate reached 70–90%, 1.5 μg of putative receptor plasmid [in pcDNA3.1( +)] was mixed with 200 μl buffer (Polyplus) in a 1.5 ml EP tube and incubated at room temperature for 10 min. The DNA/Transfection reagent (Polyplus) mixture was then added dropwise to the 6-well plate, mixed gently, and the cells were incubated overnight at 37 °C and 5% CO2. The next day, cells were digested, counted, diluted to a density of 40,0000 cells/ml, and replated in a white 384-well assay plate (Greiner bio-one, B14061RI), each well inoculated with the diluted liquid 50 μl and incubate overnight at 37 °C in 5% CO2. On the third day, the CHO cells were incubated for 1 h after adding peptide. The activation of putative receptors was detected by monitoring IP1 accumulation using the IP1 detection kit in Tecan Spark (Cisbio, 62IPAPEB). All procedures were performed according to the manufacturer's instructions for the IP1 assay kit. The elevenin peptide and analogs were synthesized by Sangon Biotech or Guoping Pharmaceutical (Supplementary Fig. 4) and were aliquoted in 50 nmol EP tubes and stored at -20 °C until use.
(§3) Dose–response curves and bar graphs for experimental data were plotted using Prism software (GraphPad). Data are expressed as the mean ± SEM. Final EC50 values are rounded to two significant figures. All experimental data were taken from individual animals or preparations, and n refers to the number of preparations. Data were considered significant when P < 0.05. Statistical tests were performed using Prism software. They included Student’s t-test (two groups) and one-way ANOVA (three or more groups).

[2] = system: apElevR3; assay: IP1 accumulation assay, apElevR3 in CHO-K1 cells; assay type: cell-based, Aplysia californica; details: for apElevR3 Log[EC50] (M): logarithm of molar EC50, IP1 accumulation, CHO-K1 transiently expressing apElevR3 (pcDNA3.1(+)), no Gα16 co-transfection, peptide 10^-12 to 10^-4 M, 1 h incubation, mean ± SEM, n = 3, NA = no activation, SEM
Source text: as §1, §2, §3

[3] = system: apElevR1; assay: IP1 accumulation assay, apElevR1 in CHO-K1 cells; assay type: cell-based, Aplysia californica; details: for apElevR1 Log[EC50] (M): logarithm of molar EC50, IP1 accumulation, CHO-K1 transiently expressing apElevR1 (pcDNA3.1(+)), no Gα16 co-transfection, peptide 10^-12 to 10^-4 M, 1 h incubation, mean ± SEM, n = 3, NA = no activation, SEM
Source text: as §1, §2, §3

[4] = molecular target: elevenin receptor (second of two listed); details: CHO cells, Ca2+ response, no Gα16, cited from earlier work
Source text: (§4) Although the function of elevenin was first studied in C.elegans, its actual elevenin receptors have not yet been found in this species. In fact, prior to our work, there are a total of 6 elevenin receptors that have been described (Fig. 7). First, there are two GPCRs that have been deorphanized as elevenin receptors in both annelid Platynereis and arthropod Ixodes[2],[9]^. There is a single elevenin receptor in Nilaparvata lugens or Bombus terrestris[23] although we could not find the sequence for Nilaparvata NlA42 in NCBI. Second, in annelid Platynereis, the EC50 values of two elevenin recep ...

[5] = molecular target: elevenin receptor (first of two listed); details: CHO cells, Ca2+ response, no Gα16, cited from earlier work
Source text: as §4

[6] = system: AstC-R; details: peptide could activate AstC-R; cited from earlier work
Source text: It is notable that there are 6 residu ...

[7] = screen at 10^-4 M compared with 10^-11 M peptide, CHO-K1, n = 3, Student's t-test (Fig. 8A)
[8] = CHO-K1 transiently expressing apElevR2, no Gα16, 1 h peptide incubation, average of n = 3, rounded to two significant figures, read-out: apElevR2 [EC50]

CC[C@H](C)[C@H](NC(=O)[C@H](CCCNC(=N)N)NC(=O)[C@@H]1CCCN1C(=O)[C@@H](N)CCCNC(=N)N)C(=O)N[C@@H](CC(=O)O)C(=O)N[C@H]1CSSC[C@@H](C(=O)N[C@@H](CCCNC(=N)N)C(=O)NCC(=O)N[C@H](C(=O)N[C@@H](CO)C(=O)N[C@@H](C)C(=O)O)C(C)C)NC(=O)[C@H](C)NC(=O)[C@@H]2CCCN2C(=O)[C@H](C)NC(=O)[C@H](C)NC(=O)[C@H](C(C)C)NC(=O)[C@H](Cc2ccccc2)NC(=O)[C@H](CCCNC(=N)N)NC(=O)[C@H]([C@@H](C)O)NC1=O [[Ala^11]Elevenin] (H-RPRIDCTRFVAAPACRGVSA-OH; disulfide 6-15; N-terminus and C-terminus assumed)
apElevR2 Log[EC50] (M) [1]: -6.62±0.10 M
apElevR3 Log[EC50] (M) [2]: -6.55±0.21 M
apElevR1 Log[EC50] (M) [3]: -6.97 ±0.20 M

PDCTRFVFHPSCRGVAA [Platynereis elevenin, elevenin of annelid Platynereis dumerilii, ligand of its two elevenin receptors (literature)]
EC50 ([4]; Platynereis): 1.3 nM
EC50 ([5]; Platynereis): 62 nM

CC[C@H](C)[C@H](NC(=O)[C@H](CCCNC(=N)N)NC(=O)[C@@H]1CCCN1C(=O)[C@@H](N)CCCNC(=N)N)C(=O)N[C@@H](CC(=O)O)C(=O)N[C@H]1CSSC[C@@H](C(=O)N[C@@H](CCCNC(=N)N)C(=O)NCC(=O)N[C@H](C(=O)N[C@@H](CO)C(=O)N[C@@H](C)C(=O)O)C(C)C)NC(=O)[C@H](C)NC(=O)[C@@H]2CCCN2C(=O)[C@H](C)NC(=O)[C@H](Cc2ccccc2)NC(=O)[C@H](C(C)C)NC(=O)[C@H](Cc2ccccc2)NC(=O)[C@H](CCCNC(=N)N)NC(=O)[C@H]([C@@H](C)O)NC1=O [Elevenin] (H-RPRIDCTRFVFAPACRGVSA-OH; disulfide 6-15; N-terminus and C-terminus assumed)
apElevR2 Log[EC50] (M) [1]: -8.93±0.34 M
Activation of apElevR2 in screening (IP1), in words [1, 7]: could not activate
apElevR3 Log[EC50] (M) [2]: -8.51±0.37 M
Activation of apElevR3 in screening (IP1), in words [2, 7]: could not activate
apElevR1 Log[EC50] (M) [3]: -7.60±0.40 M
Activation of apElevR1 in screening (IP1), in words [3, 7]: could not activate

CC[C@H](C)[C@H](NC(=O)[C@H](CCCNC(=N)N)NC(=O)[C@@H]1CCCN1C(=O)[C@@H](N)CCCNC(=N)N)C(=O)N[C@@H](CC(=O)O)C(=O)N[C@H]1CSSC[C@@H](C(=O)N[C@@H](CCCNC(=N)N)C(=O)NCC(=O)N[C@H](C(=O)N[C@@H](CO)C(=O)N[C@@H](C)C(=O)O)C(C)C)NC(=O)[C@H](C)NC(=O)[C@H](C)NC(=O)[C@H](C)NC(=O)[C@H](Cc2ccccc2)NC(=O)[C@H](C(C)C)NC(=O)[C@H](Cc2ccccc2)NC(=O)[C@H](CCCNC(=N)N)NC(=O)[C@H]([C@@H](C)O)NC1=O [[Ala^13]Elevenin] (H-RPRIDCTRFVFAAACRGVSA-OH; disulfide 6-15; N-terminus and C-terminus assumed)
EC50 ([1]; Table 2 prints no unit, the same values are in nM in Fig. 9J, CHO-K1, n = 3, read-out: EC50 values on apElevR2 (Table 2)): > 10000 nM
apElevR2 Log[EC50] (M) [1]: -4.48±0.21 M
apElevR3 Log[EC50] (M) [2]: -6.42±0.34 M
apElevR1 Log[EC50] (M) [3]: -6.92±0.13 M

LDCRKYPFYYRCRGISA [Ixodes elevenin, elevenin of arthropod Ixodes scapularis, ligand of its two elevenin receptors (literature)]
EC50 ([4]; Ixodes): 5.59 nM
EC50 ([5]; Ixodes): 0.01 nM

CC(C)[C@@H]1NC(=O)[C@H](Cc2ccccc2)NC(=O)[C@H](CCCNC(=N)N)NC(=O)[C@H]([C@@H](C)O)NC(=O)[C@@H](NC(=O)[C@@H](N)CC(=O)O)CSSC[C@@H](C(=O)N[C@@H](CCCNC(=N)N)C(=O)NCC(=O)O)NC(=O)[C@H](C)NC(=O)[C@@H]2CCCN2C(=O)[C@H](C)NC(=O)[C@H](Cc2ccccc2)NC1=O [Elevenin5-17] (H-DCTRFVFAPACRG-OH; disulfide 2-11; N-terminus and C-terminus assumed)
EC50 [1, 8]: > 10000 nM
apElevR2 Log[EC50] (M) [1]: -4.31±0.65 M
apElevR3 Log[EC50] (M) [2]: -5.52±0.18 M
apElevR1 Log[EC50] (M) [3]: -5.11±0.28 M

AstC without a disulfide bond: Aplysia allatostatin-C (SHYSSMCMFNVVACY) without a disulfide bond (no disulfide bond)
EC50 value on AstC-R compared to AstC with the disulfide bond, in words [6]: significantly higher

CC(C)[C@@H]1NC(=O)[C@H](Cc2ccccc2)NC(=O)[C@H](CCCNC(=N)N)NC(=O)[C@H]([C@@H](C)O)NC(=O)[C@@H](N)CSSC[C@@H](C(=O)O)NC(=O)[C@H](C)NC(=O)[C@@H]2CCCN2C(=O)[C@H](C)NC(=O)[C@H](Cc2ccccc2)NC1=O [Elevenin6-15] (H-CTRFVFAPAC-OH; disulfide 1-10)
EC50 [1, 8]: > 10000 nM
apElevR3 Log[EC50] (M) [2]: -5.20±0.36 M
Effect on apElevR1 (IP1 dose-response), in words ([3]; dose-response, CHO-K1, n = 3 (Fig. 10A, G)): did not have any effect
